# From ChEMBL document CHEMBL5247613, “Design, synthesis and biological evaluation of a new class of Hsp90 inhibitors vibsanin C derivatives” (Eur J Med Chem, 2022)
# Active and inactive are the calls of the source. No cut-off for these calls is given here.
# Experiments:
# Reticulocyte = assay: Inhibition of HSP90 in rabbit reticulocyte lysates at 10 uM incubated for 3 hrs by denatured luciferase refolding assay; type: subcellular; settings: Oryctolagus cuniculus
# [1] = Inhibition of HSP90 in rabbit reticulocyte lysates incubated for 3 hrs by denatured luciferase refolding assay; type: subcellular, Oryctolagus cuniculus
# HL-60 [2] = assay: Induction of apoptosis in human HL-60 cells assessed as necrotic cells at 1 uM by AnnexinV-FITC/PI staining based flow cytometry (reference value: 0.4%); type: functional
# HL-60 [3] = assay: Induction of apoptosis in human HL-60 cells assessed as early apoptotic cells at 1 uM by AnnexinV-FITC/PI staining based flow cytometry (reference value: 1.33%); type: functional
# HL-60 [4] = assay: Induction of apoptosis in human HL-60 cells assessed as late apoptotic cells at 10 uM by AnnexinV-FITC/PI staining based flow cytometry (reference value: 8.57%); type: functional
# A549 = assay: Antiproliferative activity against human A549 cells assessed as reduction in cell viability incubated for 48 hrs by MTT assay; type: functional, cell-based; settings: A549, 48 h
# HL-60 [5] = assay: Induction of apoptosis in human HL-60 cells assessed as viable cells at 5 uM by AnnexinV-FITC/PI staining based flow cytometry (reference value: 89.7%); type: functional; settings: read-out: Activity
# [6] = Toxicity in Kunming mouse assessed as effect on liver at 5 to 500 mg/kg, ip administered as single dose by macroscopic autopsy analysis; type: organism-based; settings: in vivo, dose 5-500 mg/kg
# [7] = Toxicity in Kunming mouse assessed as pain at 500 mg/kg, ip administered as single dose; type: organism-based; settings: in vivo
# HL-60 [8] = assay: Induction of apoptosis in human HL-60 cells assessed as increase in Bax protein expression at 1 to 10 uM incubated for 24 hrs by western blot analysis; type: functional, cell-based; settings: dose 1-10 µM
# HL-60 [9] = assay: Induction of apoptosis in human HL-60 cells assessed as viable cells at 20 uM by AnnexinV-FITC/PI staining based flow cytometry (reference value: 89.7%); type: functional; settings: read-out: Activity
# [10] = Toxicity in Kunming mouse xenografted with mouse H22 cells assessed as body weight loss at 100 mg/kg, ip administered for 14 days; type: organism-based; settings: in vivo, 336 h, time 14 day
# HL-60 [11] = assay: Induction of apoptosis in human HL-60 cells assessed as necrotic cells at 5 uM by AnnexinV-FITC/PI staining based flow cytometry (reference value: 0.4%); type: functional
# [12] = Toxicity in Kunming mouse assessed as effect on heart at 5 to 500 mg/kg, ip administered as single dose by macroscopic autopsy analysis; type: organism-based; settings: in vivo, dose 5-500 mg/kg
# H22 [13] = assay: Antitumor activity against mouse H22 cells xenografted in Kunming mouse assessed as reduction in tumor volume at 100 mg/kg, ip administered for 14 days; type: functional; settings: H22, 336 h, time 14 day
# [14] = Toxicity in Kunming mouse assessed as effect on sign of illness at 500 mg/kg, ip administered as single dose; type: organism-based; settings: in vivo
# [15] = target: T1, Heat shock protein HSP90 (Homo sapiens) (UniProt P07900+P08238); assay: Inhibition of HSP90 in human HL-60 cells assessed as decrease in CDK4 protein expression incubated for 24 hrs by western blot analysis; type: cell-based; settings: dose 1-10 µM
# HL-60 [16] = assay: Induction of apoptosis in human HL-60 cells assessed as viable cells at 1 uM by AnnexinV-FITC/PI staining based flow cytometry (reference value: 89.7%); type: functional; settings: read-out: Activity
# HL-60 [17] = assay: Induction of apoptosis in human HL-60 cells assessed as increase in PARP cleavage incubated for 24 hrs by western blot analysis; type: functional, cell-based; settings: dose 1-10 µM
# [18] = Toxicity in Kunming mouse assessed as effect on spleen at 5 to 500 mg/kg, ip administered as single dose by macroscopic autopsy analysis; type: organism-based; settings: in vivo, dose 5-500 mg/kg
# HL-60 [19] = assay: Induction of apoptosis in human HL-60 cells assessed as necrotic cells at 20 uM by AnnexinV-FITC/PI staining based flow cytometry (reference value: 0.4%); type: functional
# MCF7 = assay: Antiproliferative activity against human MCF7 cells assessed as reduction in cell viability incubated for 48 hrs by MTT assay; type: functional, cell-based; settings: MCF7, 48 h
# H22 [20] = assay: Antitumor activity against mouse H22 cells xenografted in Kunming mouse assessed as reduction in tumor weight at 100 mg/kg, ip administered for 14 days; type: functional; settings: H22, 336 h, time 14 day
# HL-60 [21] = assay: Induction of apoptosis in human HL-60 cells assessed as early apoptotic cells at 5 uM by AnnexinV-FITC/PI staining based flow cytometry (reference value: 1.33%); type: functional
# [22] = Toxicity in Kunming mouse assessed as effect on feeding habits at 500 mg/kg, ip administered as single dose; type: organism-based; settings: in vivo
# HL-60 [23] = assay: Induction of apoptosis in human HL-60 cells assessed as late apoptotic cells at 1 uM by AnnexinV-FITC/PI staining based flow cytometry (reference value: 8.57%); type: functional
# [24] = target: T1, Heat shock protein HSP90 (Homo sapiens); assay: Inhibition of HSP90 in human HL-60 cells assessed as increase in HSP27 protein expression incubated for 24 hrs by western blot analysis; type: cell-based; settings: dose 1-10 µM
# HL-60 [25] = assay: Induction of apoptosis in human HL-60 cells assessed as late apoptotic cells at 5 uM by AnnexinV-FITC/PI staining based flow cytometry (reference value: 8.57%); type: functional
# [26] = Toxicity in Kunming mouse assessed as normal animal behaviour at 500 mg/kg, ip administered as single dose; type: organism-based; settings: in vivo
# HL-60 [27] = assay: Induction of apoptosis in human HL-60 cells assessed as decrease in Bcl2 protein expression at 1 to 10 uM incubated for 24 hrs by western blot analysis; type: functional, cell-based; settings: dose 1-10 µM
# HL-60 [28] = assay: Induction of apoptosis in human HL-60 cells assessed as early apoptotic cells at 20 uM by AnnexinV-FITC/PI staining based flow cytometry (reference value: 1.33%); type: functional
# [29] = Toxicity in Kunming mouse assessed as effect on lung at 5 to 500 mg/kg, ip administered as single dose by macroscopic autopsy analysis; type: organism-based; settings: in vivo, dose 5-500 mg/kg
# [30] = Toxicity in Kunming mouse assessed as effect on physical appearance at 500 mg/kg, ip administered as single dose; type: organism-based; settings: in vivo
# [31] = Solubility of the compound in aqueous NMR buffer; type: physicochemical
# HL-60 [32] = assay: Induction of apoptosis in human HL-60 cells assessed as early apoptotic cells at 10 uM by AnnexinV-FITC/PI staining based flow cytometry (reference value: 1.33%); type: functional
# HL-60 [33] = assay: Induction of apoptosis in human HL-60 cells assessed as viable cells at 10 uM by AnnexinV-FITC/PI staining based flow cytometry (reference value: 89.7%); type: functional; settings: read-out: Activity
# HL-60 [34] = assay: Induction of apoptosis in human HL-60 cells assessed as late apoptotic cells at 20 uM by AnnexinV-FITC/PI staining based flow cytometry (reference value: 8.57%); type: functional
# SMMC-7721 = assay: Antiproliferative activity against human SMMC-7721 cells assessed as reduction in cell viability incubated for 48 hrs by MTT assay; type: functional, cell-based; settings: SMMC-7721, 48 h
# HL-60 [35] = assay: Antiproliferative activity against human HL-60 cells assessed as reduction in cell viability incubated for 48 hrs by MTT assay; type: functional, cell-based; settings: HL-60, 48 h
# [36] = Toxicity in ip dosed Kunming mouse administered as single dose; type: organism-based; settings: in vivo
# SW480 = assay: Antiproliferative activity against human SW480 cells assessed as reduction in cell viability incubated for 48 hrs by MTT assay; type: functional, cell-based; settings: SW480, 48 h
# HL-60 [37] = assay: Induction of apoptosis in human HL-60 cells assessed as necrotic cells at 10 uM by AnnexinV-FITC/PI staining based flow cytometry (reference value: 0.4%); type: functional
# [38] = Toxicity in Kunming mouse assessed as effect on kidney at 5 to 500 mg/kg, ip administered as single dose by macroscopic autopsy analysis; type: organism-based; settings: in vivo, dose 5-500 mg/kg
# [39] = Toxicity in Kunming mouse assessed as injury at 500 mg/kg, ip administered as single dose; type: organism-based; settings: in vivo
# HL-60 [40] = assay: Induction of apoptosis in human HL-60 cells assessed as increase in caspase-3 cleavage incubated for 24 hrs by western blot analysis; type: functional, cell-based; settings: dose 1-10 µM
structure (smiles),measurement,setting,value
CC(C)=CCC[C@@]1(C)CC=C(CF)c2[nH]c(C)cc2[C@@H]1/C=C/OC(=O)C=C(C)C,inhibition,Reticulocyte,68.8%
same,IC50,[1],3.61 µM
CC(=O)C[C@@H]1C(=O)C(CF)=CC[C@](C)(CCC=C(C)C)[C@H]1/C=C/OC(=O)C=C(C)C,inhibition,Reticulocyte,84.3%
same,IC50,[1],4.1 µM
CC(C)=CCC[C@@]1(C)CC=C(CF)c2oc(C)cc2[C@@H]1/C=C/OC(=O)C=C(C)C,inhibition,Reticulocyte,72.2%
same,Activity,HL-60 [2],0.27%
same,Activity,HL-60 [3],1.57%
same,Activity,HL-60 [4],50.4%
same,IC50,A549,> 40 µM
same,viability at 5 µM,HL-60 [5],83%
same,Activity,[6],Non-Toxic
same,Activity,[7],Non-Toxic
same,Activity,HL-60 [8],Active
same,viability at 20 µM,HL-60 [9],19.5%
same,Activity,[10],Non-Toxic
same,Activity,HL-60 [11],0.22%
same,Activity,[12],Non-Toxic
same,inhibition in vivo at 100 mg/kg,H22 [13],48.4%
same,Activity,[14],Non-Toxic
same,inhibition,[15],Dose-Dependent Effect
same,viability at 1 µM,HL-60 [16],87.1%
same,Activity,HL-60 [17],Dose-Dependent Effect
same,Activity,[18],Non-Toxic
same,Activity,HL-60 [19],3.45%
same,IC50,MCF7,17.7 µM
same,inhibition in vivo at 100 mg/kg,H22 [20],42.4%
same,Activity,HL-60 [21],2.87%
same,Activity,[22],Non-Toxic
same,Activity,HL-60 [23],11%
same,inhibition,[24],Dose-Dependent Effect
same,Activity,HL-60 [25],12.8%
same,IC50,[1],0.39 µM
same,Activity,[26],Non-Toxic
same,Activity,HL-60 [27],Active
same,Activity,HL-60 [28],3.78%
same,Activity,[29],Non-Toxic
same,Activity,[30],Non-Toxic
same,solubility,[31],Insoluble
same,Activity,HL-60 [32],4.98%
same,viability at 10 µM,HL-60 [33],38.4%
same,Activity,HL-60 [34],73.3%
same,IC50,SMMC-7721,11.9 µM
same,IC50,HL-60 [35],3.69 µM
same,LD50,[36],> 500 mg/kg
same,IC50,SW480,20 µM
same,Activity,HL-60 [37],6.29%
same,Activity,[38],Non-Toxic
same,Activity,[39],Non-Toxic
same,Activity,HL-60 [40],Dose-Dependent Effect
CC(C)=CCC[C@]1(C)/C=C/[C@@H](OC(=O)C=C(C)C)[C@](C)(O)/C=C/C(=O)/C(CN2CCN(C)CC2)=C\C1,inhibition,Reticulocyte,93.6%
same,IC50,[1],0.98 µM
CC(=O)C[C@@H]1C(=O)C(COC(=O)CCC(=O)O)=CC[C@](C)(CCC=C(C)C)[C@H]1/C=C/OC(=O)C=C(C)C,inhibition,Reticulocyte,66.8%
same,IC50,[1],7.52 µM
CC(=O)C[C@@H]1C(=O)C(COC(=O)c2cc(Cl)ccc2N)=CC[C@](C)(CCC=C(C)C)[C@H]1/C=C/OC(=O)C=C(C)C,inhibition,Reticulocyte,61.8%
same,IC50,[1],4.09 µM
CC(C)=CCC[C@@]1(C)CC=C(CCl)c2nnc(C)cc2[C@@H]1/C=C/OC(=O)C=C(C)C,inhibition,Reticulocyte,85.9%
same,IC50,[1],2.37 µM
